# Test results taken from ChEMBL document CHEMBL6109079, “Discovery of novel pyrimidinetrione derivatives as DprE1 inhibitors with potent antimycobacterial activities” (Eur J Med Chem, 2025).
# What was measured:
# [1] = Inhibition of DprE1 (unknown origin) preincubated with FAD followed by compound addition and measured after 2 mins by fluorescence based microplate reader; parameters: species or system Bacteria
# [2] = Binding affinity to recombinant DprE1 (unknown origin) assessed as dissociation constant incubated for 10 mins by MST analysis; parameters: species or system Bacteria
# [3] = system: Mycobacterium tuberculosis; experiment: Antibacterial activity against Mycobacterium tuberculosis H37Ra assessed as inhibition of bacterial growth at 10 uM incubated for 3 weeks by absorbance based microplate reader relative to control; type: functional; details: 504 h
# [4] = system: Mycobacterium tuberculosis; experiment: Antibacterial activity against Mycobacterium tuberculosis H37Ra assessed as inhibition of bacterial growth at 50 uM incubated for 3 weeks by absorbance based microplate reader relative to control; type: functional; details: 504 h
# [5] = Selectivity index, ratio of CC50 for cytotoxicity against human THP-1 cells to MIC50 for antibacterial activity against Mycobacterium tuberculosis H37Ra; type: toxicity, cell-based; details: read-out: Selectivity Index
# [6] = system: Mycobacterium tuberculosis; experiment: Antibacterial activity against Mycobacterium tuberculosis H37Ra infected in PMA-differentiated human THP-1 cells assessed as reduction in colony forming units measured after 3 weeks by absorbance based assay; type: functional, organism-based; details: dose 10-100 µM
# [7] = system: Mycobacterium tuberculosis; experiment: Antibacterial activity against Mycobacterium tuberculosis H37Ra assessed as inhibition of bacterial growth incubated for 1 weeks by absorbance based microplate reader; type: functional; details: 168 h
# [8] = Cytotoxicity against human THP-1 cells assessed as cell viability at 200 uM incubated for 24 hrs by CCK-8 assay relative to control; type: toxicity, cell-based; details: read-out: Activity
# [9] = Cytotoxicity against human THP-1 cells assessed as reduction in cell viability incubated for 24 hrs by CCK-8 assay; type: toxicity, cell-based
# [10] = system: Mycobacterium tuberculosis; experiment: Antibacterial activity against Mycobacterium tuberculosis H37Rv assessed as inhibition of bacterial growth at 10 uM incubated for 3 weeks by absorbance based microplate reader relative to control; type: functional; details: 504 h
# [11] = biological target: T1, Decaprenylphosphoryl-beta-D-ribose oxidase (Mycobacterium smegmatis (strain ATCC 700084 / mc(2)155), UniProt A0R607); experiment: Binding affinity to full length N-terminal 6his-tagged Mycobacterium smegmatis ATCC 607 DprE1 extracted from Escherichia coli BL21 assessed as dissociation constant incubated for 10 mins; parameters: species or system Mycolicibacterium smegmatis
# T1 sequence (A0R607 whole entry): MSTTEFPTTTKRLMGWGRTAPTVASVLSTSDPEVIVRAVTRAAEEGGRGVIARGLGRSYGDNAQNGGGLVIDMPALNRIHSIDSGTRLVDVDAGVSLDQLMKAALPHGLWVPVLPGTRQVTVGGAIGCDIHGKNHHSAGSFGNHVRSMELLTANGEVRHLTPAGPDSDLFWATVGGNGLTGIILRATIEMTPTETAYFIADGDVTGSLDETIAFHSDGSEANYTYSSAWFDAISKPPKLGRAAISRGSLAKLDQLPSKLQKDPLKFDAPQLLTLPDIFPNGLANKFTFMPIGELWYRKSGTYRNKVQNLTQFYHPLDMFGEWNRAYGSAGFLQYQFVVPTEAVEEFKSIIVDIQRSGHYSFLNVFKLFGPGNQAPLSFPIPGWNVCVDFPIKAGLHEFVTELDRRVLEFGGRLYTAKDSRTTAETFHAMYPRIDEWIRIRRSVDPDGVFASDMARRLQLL
smiles,measurement,setting,value
O=C(CO)NN/C=C1\C(=O)NC(=O)N(Cc2ccccc2)C1=O,IC50,[1],> 100 µM
O=C1NC(=O)N(C2CC2)C(=O)/C1=C/NNC(=O)c1ccncc1,Kd,[2],2230 nM
same,inhibition at 10 µM,[3],100%
same,inhibition at 50 µM,[4],100%
same,selectivity ratio,[5],> 179
same,Activity,[6],Dose-dependent-effect
same,MIC50,[7],1.12 µM
same,"viability at 24 h, 200 µM",[8],100%
same,IC50,[1],20.3 µM
same,CC50 at 24 h,[9],> 200 µM
same,inhibition at 10 µM,[10],100%
O=C1NC(=O)N(Cc2ccccc2)C(=O)/C1=C/NNC(=O)c1ccc(Cl)cc1,IC50,[1],23.9 µM
CC(C)(C)C(=O)NN/C=C1\C(=O)NC(=O)N(Cc2ccccc2)C1=O,IC50,[1],> 100 µM
O=C1NC(=O)N(Cc2ccccc2)C(=O)/C1=C/NNC(=O)c1cccc([N+](=O)[O-])c1,IC50,[1],42.5 µM
O=C1NC(=O)N(Cc2ccccc2)C(=O)/C1=C/NNC(=O)c1cccnc1,IC50,[1],28.8 µM
O=C1NC(=O)N(Cc2ccccc2)C(=O)/C1=C/NNC(=O)c1cccc2ncccc12,IC50,[1],12.6 µM
C=CCN1C(=O)C(=CNNC(=O)c2ccncc2)C(=O)N(CC=C)C1=O,inhibition at 10 µM,[3],100%
same,inhibition at 50 µM,[4],100%
same,selectivity ratio,[5],> 69.2
same,MIC50,[7],2.89 µM
same,"viability at 24 h, 200 µM",[8],100%
same,IC50,[1],> 100 µM
same,CC50 at 24 h,[9],> 200 µM
same,inhibition at 10 µM,[10],100%
C=CCN1C(=O)NC(=O)/C(=C\NNC(=O)c2cccc3ncccc23)C1=O,IC50,[1],11.1 µM
O=C1NC(=O)N(C2CCCCC2)C(=O)/C1=C/NNC(=O)c1ccncc1,inhibition at 10 µM,[3],100%
same,inhibition at 50 µM,[4],100%
same,selectivity ratio,[5],> 37.5
same,MIC50,[7],5.34 µM
same,"viability at 24 h, 200 µM",[8],100%
same,IC50,[1],16.7 µM
same,CC50 at 24 h,[9],> 200 µM
same,inhibition at 10 µM,[10],100%
O=C1NC(=O)C(=CNNC(=O)c2ccncc2)C(=O)N1,inhibition at 10 µM,[3],100%
same,inhibition at 50 µM,[4],100%
same,selectivity ratio,[5],> 112
same,MIC50,[7],1.78 µM
same,"viability at 24 h, 200 µM",[8],100%
same,IC50,[1],> 100 µM
same,CC50 at 24 h,[9],> 200 µM
same,inhibition at 10 µM,[10],100%
O=C1NC(=O)N(C2CCCCC2)C(=O)/C1=C/NNC(=O)c1cccnc1,IC50,[1],30.4 µM
O=C1NC(=O)N(Cc2ccccc2)C(=O)/C1=C/NNC(=O)c1ccncc1,inhibition at 10 µM,[3],100%
same,inhibition at 50 µM,[4],100%
same,selectivity ratio,[5],> 63.5
same,MIC50,[7],3.15 µM
same,"viability at 24 h, 200 µM",[8],100%
same,IC50,[1],10.2 µM
same,CC50 at 24 h,[9],> 200 µM
same,inhibition at 10 µM,[10],100%
O=C1NC(=O)N(c2ccccc2)C(=O)/C1=C/NNC(=O)c1cccnc1,IC50,[1],32.1 µM
CC(=O)Nc1ccc(C(=O)NN/C=C2\C(=O)NC(=O)N(Cc3ccccc3)C2=O)cc1,IC50,[1],27.6 µM
COCC(=O)NN/C=C1\C(=O)NC(=O)N(Cc2ccccc2)C1=O,IC50,[1],> 100 µM
O=C1NC(=O)N(C2CC2)C(=O)/C1=C/NNC(=O)c1ccnc2ccccc12,IC50,[1],14.3 µM
C=CCN1C(=O)NC(=O)/C(=C\NNC(=O)c2ccccc2)C1=O,IC50,[1],15.3 µM
CCN1C(=O)NC(=O)/C(=C\NNC(=O)c2ccncc2)C1=O,inhibition at 10 µM,[3],100%
same,inhibition at 50 µM,[4],100%
same,selectivity ratio,[5],> 147
same,MIC50,[7],1.36 µM
same,"viability at 24 h, 200 µM",[8],100%
same,IC50,[1],52.3 µM
same,CC50 at 24 h,[9],> 200 µM
same,inhibition at 10 µM,[10],100%
COc1cccc(C(=O)NN/C=C2\C(=O)NC(=O)N(Cc3ccccc3)C2=O)c1,IC50,[1],6.53 µM
C=CCN1C(=O)NC(=O)/C(=C\NNC(=O)c2ccncc2)C1=O,Kd,[2],25 nM
same,IC50,[1],54.6 µM
same,Kd,[11],2.5 nM
CC[C@@H](C)N1C(=O)NC(=O)/C(=C\NNC(=O)c2ccncc2)C1=O,inhibition at 10 µM,[3],100%
same,inhibition at 50 µM,[4],100%
same,selectivity ratio,[5],> 68.1
same,MIC50,[7],2.5 µM
same,"viability at 24 h, 200 µM",[8],100%
same,IC50,[1],50.4 µM
same,CC50 at 24 h,[9],> 200 µM
same,inhibition at 10 µM,[10],100%
O=C1NC(=O)N(CCc2ccccc2)C(=O)/C1=C/NNC(=O)c1cccnc1,IC50,[1],24.8 µM
Cc1ccc(S(=O)(=O)C(=O)NN/C=C2\C(=O)NC(=O)N(Cc3ccccc3)C2=O)cc1,IC50,[1],62 µM
